According to ChEMBL document CHEMBL5726543, “Glucocerebrosidase modulators and uses thereof” (2017):

Target: T1, Lysosomal acid glucosylceramidase (Homo sapiens, UniProt P04062)
T1 sequence (P04062 whole entry): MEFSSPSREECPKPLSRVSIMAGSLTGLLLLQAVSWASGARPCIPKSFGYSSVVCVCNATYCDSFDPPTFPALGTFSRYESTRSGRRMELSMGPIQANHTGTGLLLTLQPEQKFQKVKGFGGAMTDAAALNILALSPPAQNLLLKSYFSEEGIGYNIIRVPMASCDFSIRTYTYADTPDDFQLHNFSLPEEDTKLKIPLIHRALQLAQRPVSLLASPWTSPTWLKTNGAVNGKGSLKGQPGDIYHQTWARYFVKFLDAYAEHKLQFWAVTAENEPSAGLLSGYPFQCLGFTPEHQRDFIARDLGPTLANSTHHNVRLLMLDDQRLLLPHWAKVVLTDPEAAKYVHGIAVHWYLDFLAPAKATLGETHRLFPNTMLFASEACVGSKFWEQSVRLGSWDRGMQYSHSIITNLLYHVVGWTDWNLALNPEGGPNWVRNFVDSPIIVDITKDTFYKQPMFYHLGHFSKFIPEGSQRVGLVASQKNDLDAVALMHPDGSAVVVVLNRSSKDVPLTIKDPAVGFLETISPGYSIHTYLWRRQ
Description: The reaction solution consisted of 25 μL of 6 mM 4-methylumbelliferone-β-D glucopyranoside in 10% DMSO in the same buffer, 12.5 μL of enzyme and 12.5 μL of various concentrations of test compound diluted in buffer. […] The reaction was initiated by addition of enzyme and allowed to proceed for 20 min at 37° C. to assess GCase activity. […] IC50 values were determined by fitting the data to a log [inhibitor concentration] versus response curve using GraphPad Prism.

CCCC1(CCC)NC[C@@H](O)[C@H](O)[C@H]1CO
Ki: 1400 nM
